Laboratory results as given in PubChem BioAssay AID248 (DTP/NCI, 2004).
Several values for one entry are separate records, joined by “and”; a condition that tells them apart may be missing. Identical values can stand only once. Inconclusive results and toxic doses are left out. No stated cut-off is given here; in the data, active means T/C of 150% or more; inactive means T/C below 125%.

System: L1210 leukemia ip in BDF1 mice, survival T/C
Experiment: NCI In Vivo Anticancer Drug Screen. Data for tumor model L1210 Leukemia (intraperitoneal) in B6D2F1 (BDF1) mice
Conditions: higher = longer survival
In short: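 Read-out is survival time, reported as the treated-group measurement over the vehicle-control measurement.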

Measured: T/C

CC[C@]1(O)C[C@H]2CN(CCc3c([nH]c4ccccc34)[C@@](C(=O)OC)(c3cc4c(cc3OC)N(C=O)[C@H]3[C@@](O)(C(=O)OC)[C@H](OC(C)=O)[C@]5(CC)C=CCN6CC[C@]43[C@@H]65)C2)C1
inactive: endpoint: mean survival time, dose: 0.03 mg/kg/injection, schedule: Q01DX015 (ip), vehicle: saline 108 % of control | endpoint: mean survival time, dose: 0.03 mg/kg/injection, schedule: Q03HX032 (ip), vehicle: saline 107 % of control | endpoint: mean survival time, dose: 0.03 mg/kg/injection, schedule: Q## X032 (ip), vehicle: saline 107 % of control | endpoint: mean survival time, dose: 0.04 mg/kg/injection, schedule: Q03HX032 (ip), vehicle: saline 109 % of control | endpoint: mean survival time, dose: 0.04 mg/kg/injection, schedule: Q## X032 (ip), vehicle: saline 109 % of control | endpoint: mean survival time, dose: 0.05 mg/kg/injection, schedule: Q01DX005 (ip), vehicle: saline 101 % of control | endpoint: mean survival time, dose: 0.05 mg/kg/injection, schedule: Q01DX005 (iv), vehicle: saline 101 % of control | endpoint: mean survival time, dose: 0.05 mg/kg/injection, schedule: Q01DX015 (ip), vehicle: saline 108 % of control | endpoint: mean survival time, dose: 0.06 mg/kg/injection, schedule: Q01DX Z (ip), vehicle: water 105 % of control | endpoint: mean survival time, dose: 0.06 mg/kg/injection, schedule: Q## X032 (ip), vehicle: saline 113 % of control | endpoint: mean survival time, dose: 0.07 mg/kg/injection, schedule: Q03HX032 (ip), vehicle: saline 113 % of control | endpoint: mean survival time, dose: 0.08 mg/kg/injection, schedule: Q04DX002 (ip), vehicle: saline 102 % of control and 104 % of control | endpoint: mean survival time, dose: 0.1 mg/kg/injection, schedule: Q01DX005 (ip), vehicle: saline 116 % of control | endpoint: mean survival time, dose: 0.1 mg/kg/injection, schedule: Q01DX005 (iv), vehicle: saline 100 % of control | endpoint: mean survival time, dose: 0.12 mg/kg/injection, schedule: Q01DX Z (ip), vehicle: water 108 % of control | endpoint: mean survival time, dose: 0.15 mg/kg/injection, schedule: Q01DX015 (ip), vehicle: saline 114 % of control | endpoint: mean survival time, dose: 0.15 mg/kg/injection, schedule: Q04DX002 (ip), vehicle: saline 100 % of control and 105 % of control | endpoint: mean survival time, dose: 0.2 mg/kg/injection, schedule: Q01DX005 (ip), vehicle: saline 115 % of control | endpoint: mean survival time, dose: 0.2 mg/kg/injection, schedule: Q01DX005 (iv), vehicle: saline 106 % of control | endpoint: mean survival time, dose: 0.2 mg/kg/injection, schedule: Q04DX002 (ip), vehicle: saline 104 % of control | endpoint: mean survival time, dose: 0.23 mg/kg/injection, schedule: Q04DX003 (ip), vehicle: saline 110 % of control | endpoint: mean survival time, dose: 0.25 mg/kg/injection, schedule: Q01DX Z (ip), vehicle: water 115 % of control | endpoint: mean survival time, dose: 0.39 mg/kg/injection, schedule: Q04DX002 (ip), vehicle: saline 110 % of control | endpoint: mean survival time, dose: 0.4 mg/kg/injection, schedule: Q01DX005 (ip), vehicle: saline 105 % of control | endpoint: mean survival time, dose: 0.4 mg/kg/injection, schedule: Q01DX005 (iv), vehicle: saline 100 % of control | endpoint: mean survival time, dose: 0.5 mg/kg/injection, schedule: Q01DX009 (ip), vehicle: saline 105 % of control | endpoint: mean survival time, dose: 0.5 mg/kg/injection, schedule: Q01DX Z (ip), vehicle: saline 97 % of control | endpoint: mean survival time, dose: 0.5 mg/kg/injection, schedule: Q01DX Z (ip), vehicle: water 108 % of control | endpoint: mean survival time, dose: 0.5 mg/kg/injection, schedule: Q04DX004 (ip), vehicle: saline 110 % of control | endpoint: mean survival time, dose: 0.75 mg/kg/injection, schedule: Q01DX015 (ip), vehicle: saline 113 % of control | endpoint: mean survival time, dose: 0.8 mg/kg/injection, schedule: Q01DX001 (ip), vehicle: saline 115 % of control | endpoint: mean survival time, dose: 0.8 mg/kg/injection, schedule: Q01DX005 (iv), vehicle: saline 116 % of control | endpoint: mean survival time, dose: 0.8 mg/kg/injection, schedule: Q01DX015 (ip), vehicle: saline 108 % of control | endpoint: mean survival time, dose: 1.0 mg/kg/injection, schedule: Q01DX Z (ip), vehicle: water 95 % of control and 99 % of control | endpoint: mean survival time, dose: 1.0 mg/kg/injection, schedule: Q04DX004 (ip), vehicle: saline 115 % of control | endpoint: mean survival time, dose: 1.12 mg/kg/injection, schedule: Q01DX015 (ip), vehicle: saline 105 % of control | endpoint: mean survival time, dose: 1.5 mg/kg/injection, schedule: Q01DX001 (ip), vehicle: water 109 % of control and 112 % of control | endpoint: mean survival time, dose: 1.5 mg/kg/injection, schedule: Q04DX002 (ip), vehicle: saline 116 % of control | endpoint: mean survival time, dose: 6.0 mg/kg/injection, schedule: Q01DX001 (ip), vehicle: water 107 % of control | endpoint: mean survival time, dose: 3.2 micrograms/kg/injection, schedule: Q01DX015 (ip), vehicle: saline 94 % of control | endpoint: mean survival time, dose: 6.3 micrograms/kg/injection, schedule: Q01DX015 (ip), vehicle: saline 97 % of control | endpoint: mean survival time, dose: 11.0 micrograms/kg/injection, schedule: Q01DX009 (ip), vehicle: saline 102 % of control and 109 % of control | endpoint: mean survival time, dose: 12.5 micrograms/kg/injection, schedule: Q01DX015 (ip), vehicle: saline 98 % of control | endpoint: mean survival time, dose: 15.6 micrograms/kg/injection, schedule: Q03HX008 (ip), vehicle: clinical formulation 104 % of control | endpoint: mean survival time, dose: 15.6 micrograms/kg/injection, schedule: Q03HX016 (ip), vehicle: clinical formulation 100 % of control | endpoint: mean survival time, dose: 15.6 micrograms/kg/injection, schedule: Q03HX024 (ip), vehicle: clinical formulation 102 % of control | endpoint: mean survival time, dose: 23.0 micrograms/kg/injection, schedule: Q01DX009 (ip), vehicle: saline 98 % of control and 100 % of control | endpoint: mean survival time, dose: 25.0 micrograms/kg/injection, schedule: Q01DX015 (ip), vehicle: saline 112 % of control | endpoint: mean survival time, dose: 31.2 micrograms/kg/injection, schedule: Q01DX009 (ip), vehicle: clinical formulation 102 % of control | endpoint: mean survival time, dose: 31.2 micrograms/kg/injection, schedule: Q03HX008 (ip), vehicle: clinical formulation 106 % of control | endpoint: mean survival time, dose: 31.2 micrograms/kg/injection, schedule: Q03HX016 (ip), vehicle: clinical formulation 105 % of control | endpoint: mean survival time, dose: 47.0 micrograms/kg/injection, schedule: Q01DX009 (ip), vehicle: saline 109 % of control and 114 % of control | endpoint: mean survival time, dose: 50.0 micrograms/kg/injection, schedule: Q01DX015 (ip), vehicle: saline 113 % of control | endpoint: mean survival time, dose: 62.5 micrograms/kg/injection, schedule: Q03HX008 (ip), vehicle: clinical formulation 112 % of control | endpoint: mean survival time, dose: 62.5 micrograms/kg/injection, schedule: Q03HX016 (ip), vehicle: clinical formulation 105 % of control | endpoint: mean survival time, dose: 62.5 micrograms/kg/injection, schedule: Q04DX003 (ip), vehicle: clinical formulation 113 % of control | endpoint: mean survival time, dose: 100.0 micrograms/kg/injection, schedule: Q01DX015 (ip), vehicle: saline 103 % of control | endpoint: mean survival time, dose: 125.0 micrograms/kg/injection, schedule: Q01DX001 (ip), vehicle: clinical formulation 104 % of control | endpoint: mean survival time, dose: 125.0 micrograms/kg/injection, schedule: Q04DX003 (ip), vehicle: clinical formulation 115 % of control | endpoint: mean survival time, dose: 125.0 micrograms/kg/injection, schedule: Q08DX002 (ip), vehicle: clinical formulation 101 % of control | endpoint: mean survival time, dose: 200.0 micrograms/kg/injection, schedule: Q01DX015 (ip), vehicle: saline 115 % of control | endpoint: mean survival time, dose: 216.0 micrograms/kg/injection, schedule: Q04DX003 (ip), vehicle: saline 116 % of control | endpoint: mean survival time, dose: 250.0 micrograms/kg/injection, schedule: Q01DX001 (ip), vehicle: clinical formulation 106 % of control | endpoint: mean survival time, dose: 250.0 micrograms/kg/injection, schedule: Q03HX024 (ip), vehicle: clinical formulation 98 % of control | endpoint: mean survival time, dose: 250.0 micrograms/kg/injection, schedule: Q04DX003 (ip), vehicle: clinical formulation 116 % of control | endpoint: mean survival time, dose: 250.0 micrograms/kg/injection, schedule: Q08DX002 (ip), vehicle: clinical formulation 108 % of control | endpoint: mean survival time, dose: 500.0 micrograms/kg/injection, schedule: Q01DX001 (ip), vehicle: clinical formulation 113 % of control | endpoint: mean survival time, dose: 500.0 micrograms/kg/injection, schedule: Q08DX002 (ip), vehicle: clinical formulation 106 % of control | endpoint: mean survival time, dose: 600.0 micrograms/kg/injection, schedule: Q04DX003 (ip), vehicle: saline 112 % of control | endpoint: mean survival time, dose: 740.0 micrograms/kg/injection, schedule: Q01DX009 (ip), vehicle: saline 92 % of control and 102 % of control | endpoint: mean survival time, dose: 1000.0 micrograms/kg/injection, schedule: Q08DX002 (ip), vehicle: clinical formulation 108 % of control | endpoint: mean survival time, dose: 2000.0 micrograms/kg/injection, schedule: Q01DX001 (ip), vehicle: clinical formulation 116 % of control | endpoint: median survival time, dose: 0.02 mg/kg/injection, schedule: Q01DX001 (ip), vehicle: water 103 % of control | endpoint: median survival time, dose: 0.03 mg/kg/injection, schedule: Q01DX001 (ip), vehicle: water 103 % of control | endpoint: median survival time, dose: 0.05 mg/kg/injection, schedule: Q01DX001 (ip), vehicle: water 108 % of control | endpoint: median survival time, dose: 0.14 mg/kg/injection, schedule: Q01DX009 (ip), vehicle: water 114 % of control | endpoint: median survival time, dose: 0.25 mg/kg/injection, schedule: Q01DX002 (ip), vehicle: water 110 % of control | endpoint: median survival time, dose: 0.25 mg/kg/injection, schedule: Q01DX009 (ip), vehicle: water 115 % of control | endpoint: median survival time, dose: 0.4 mg/kg/injection, schedule: Q01DX001 (ip), vehicle: saline 111 % of control | endpoint: median survival time, dose: 0.4 mg/kg/injection, schedule: Q01DX009 (ip), vehicle: water 100 % of control and 103 % of control | endpoint: median survival time, dose: 0.5 mg/kg/injection, schedule: Q01DX001 (ip), vehicle: water 99 % of control and 100 % of control | endpoint: median survival time, dose: 1.0 mg/kg/injection, schedule: Q01DX001 (ip), vehicle: water 102 % of control | endpoint: median survival time, dose: 2.0 mg/kg/injection, schedule: Q01DX001 (ip), vehicle: water 116 % of control | endpoint: median survival time, dose: 2.0 mg/kg/injection, schedule: Q01DX002 (ip), vehicle: water 108 % of control
